Reference: PMC4992173, “Divergent synthesis and identification of the cellular targets of deoxyelephantopins” (Nature Communications, 2016)

Columns and labels:
PPARγ = target: T1, PPARγ (Homo sapiens, UniProt P37231); assay: Gel-based screening for PPARγ binders using probe 24c-Cy3; assay type: binding; parameters: purchased Cayman Chemical; conditions: 20 μM, 1 h, then 10 μM 24c-Cy3; 19a named first, 28 second
T1 sequence (P37231 1-505): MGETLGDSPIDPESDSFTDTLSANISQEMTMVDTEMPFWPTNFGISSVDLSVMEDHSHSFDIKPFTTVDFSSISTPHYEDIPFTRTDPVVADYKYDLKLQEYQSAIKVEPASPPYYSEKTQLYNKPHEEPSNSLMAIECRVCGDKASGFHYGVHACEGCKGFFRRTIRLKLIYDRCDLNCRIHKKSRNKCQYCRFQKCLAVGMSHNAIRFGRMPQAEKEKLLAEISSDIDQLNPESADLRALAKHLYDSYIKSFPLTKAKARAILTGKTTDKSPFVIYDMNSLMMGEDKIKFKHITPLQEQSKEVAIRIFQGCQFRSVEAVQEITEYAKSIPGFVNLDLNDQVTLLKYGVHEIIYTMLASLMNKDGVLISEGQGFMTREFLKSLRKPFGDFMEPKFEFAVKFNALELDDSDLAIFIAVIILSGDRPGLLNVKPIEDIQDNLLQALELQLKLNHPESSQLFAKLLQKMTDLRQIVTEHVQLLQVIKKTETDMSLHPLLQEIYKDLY
Description: (c) Gel-based competitive screening of DEP and analogues as PPARγ antagonists against recombinant human enzyme (top). hPPARγ was treated with each compound (20 μM) for 1 h followed by treatment with 24c-Cy3 (10 μM) as probe. Quantification of fluorescence intensity in the competitive screening for PPARγ antagonists (bottom; values±s.d. are shown; n=3).
Briefly, recombinant human PPARγ was pretreated with compounds at 20 μM concentration followed by the probe 24c-Cy3.
Samples were then treated with 10 μM 24c-Cy3 (0.5 μl of 25 × stock in DMSO) for 1 h at room temperature in the dark. SDS–PAGE reducing loading buffer (4 ×) was added and proteins were separated using a 10% SDS–PAGE gel. Gels were visualized at 625 nm using a Hitachi FMBIO II Multi-View fluorescence scanner, then stained using silver staining. Images were quantified with ImageJ.

[1] = target: T2, Glyoxylate reductase/hydroxypyruvate reductase (GRHPR) (Homo sapiens, UniProt Q9UBQ7); assay: In situ competitive profiling in live MCF7 cells (LFQ): GRHPR; assay type: cell-based; conditions: protein GRHPR, 4 h, then 10 µM 24c, n=4
T2 construct: endogenous in cells; host or cells: MCF7
T2 sequence (Q9UBQ7 whole entry): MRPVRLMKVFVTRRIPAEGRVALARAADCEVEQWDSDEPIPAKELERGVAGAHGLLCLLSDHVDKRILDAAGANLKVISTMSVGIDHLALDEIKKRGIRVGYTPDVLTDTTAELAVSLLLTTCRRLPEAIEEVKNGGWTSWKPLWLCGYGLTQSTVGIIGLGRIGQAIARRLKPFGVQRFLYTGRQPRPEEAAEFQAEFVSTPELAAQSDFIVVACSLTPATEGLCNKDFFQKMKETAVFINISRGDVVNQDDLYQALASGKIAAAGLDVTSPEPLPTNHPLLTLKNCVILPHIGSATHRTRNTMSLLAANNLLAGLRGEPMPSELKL
Description: (§1) In our efforts to determine the direct molecular targets of deoxyelephantopin we first performed a gel-based competitive in situ proteomic profiling assay[41] […] While the greater conformational flexibility of probe 24c could potentially lead to more promiscuous target engagement relatively to deoxyelephantopin, it was favoured based on the fact that an alkyne moiety appended to the rigid scaffold of deoxyelephantopin may hinder some of its interactions. MCF7 cells were pretreated with various concentrations of deoxyelephantopin for 4 h, harvested, lysed and the lysates were treated with the fluorogenic probe 24c-Cy3 (10 μM; Supplementary Fig. 10). […] Furthermore, cells were pretreated with 20 μM concentration of deoxyelephantopin or 24c and the proteomic profiles were compared (Fig. 6b, Supplementary Fig. 11). Multiple bands were detected that were equally competed by both DEP and 24c, thus again confirming that 24c can be used as an acceptable clickable analogue of deoxyelephantopin in pulldown assays. Having established the optimal labelling conditions by SDS–PAGE, we next carried out a mass spectrometry-based competitive profiling assay[42] coupled with the method of stable isotope labelling of amino acids in culture (SILAC)[43]. […]
(§2) Figure 6 Proteome-wide identification of deoxyelephantopin targets. […] Quantification was performed using label-free quantification (LFQ) method (n=4). […]

[2] = target: T3, FLYWCH family member 2 (FLYWCH2) (Homo sapiens, UniProt Q96CP2); assay: In situ competitive profiling in live MCF7 cells (LFQ): FLYWCH2; assay type: cell-based; conditions: protein FLYWCH2, 4 h, then 10 µM 24c, n=4
T3 construct: endogenous in cells; host or cells: MCF7
T3 sequence (Q96CP2 whole entry): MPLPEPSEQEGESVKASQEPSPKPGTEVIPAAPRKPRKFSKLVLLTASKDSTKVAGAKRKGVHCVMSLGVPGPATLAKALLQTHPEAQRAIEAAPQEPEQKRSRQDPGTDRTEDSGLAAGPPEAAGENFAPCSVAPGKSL
Description: as §1, §2

[3] = target: T4, Cystathionine beta-synthase (CBS) (Homo sapiens, UniProt P35520); assay: In situ competitive profiling in live MCF7 cells (LFQ): CBS; assay type: cell-based; conditions: protein CBS, 4 h, then 10 µM 24c, n=4
T4 construct: endogenous in cells; host or cells: MCF7
T4 sequence (P35520 whole entry): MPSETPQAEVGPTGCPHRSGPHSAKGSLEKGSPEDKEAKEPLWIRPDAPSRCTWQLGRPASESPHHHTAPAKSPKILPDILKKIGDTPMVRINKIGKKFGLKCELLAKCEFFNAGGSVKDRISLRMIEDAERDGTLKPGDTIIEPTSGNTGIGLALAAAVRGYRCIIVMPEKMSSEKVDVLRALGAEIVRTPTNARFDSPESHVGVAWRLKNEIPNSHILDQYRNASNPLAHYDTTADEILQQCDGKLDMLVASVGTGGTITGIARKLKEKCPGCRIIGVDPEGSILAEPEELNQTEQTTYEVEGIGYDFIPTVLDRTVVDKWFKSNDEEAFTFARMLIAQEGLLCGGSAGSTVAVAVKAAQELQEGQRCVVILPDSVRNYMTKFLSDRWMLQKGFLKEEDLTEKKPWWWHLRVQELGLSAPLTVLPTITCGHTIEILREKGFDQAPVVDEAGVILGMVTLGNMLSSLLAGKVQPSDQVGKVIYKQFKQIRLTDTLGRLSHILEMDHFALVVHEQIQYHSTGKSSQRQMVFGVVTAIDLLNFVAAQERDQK
Description: as §1, §2

[4] = target: T5, Protein transport protein Sec24C (SEC24C) (Homo sapiens, UniProt P53992); assay: In situ competitive profiling in live MCF7 cells (LFQ): SEC24C; assay type: cell-based; conditions: 4 h, then 10 µM 24c, n=4
T5 construct: endogenous in cells; host or cells: MCF7
T5 sequence (P53992 whole entry): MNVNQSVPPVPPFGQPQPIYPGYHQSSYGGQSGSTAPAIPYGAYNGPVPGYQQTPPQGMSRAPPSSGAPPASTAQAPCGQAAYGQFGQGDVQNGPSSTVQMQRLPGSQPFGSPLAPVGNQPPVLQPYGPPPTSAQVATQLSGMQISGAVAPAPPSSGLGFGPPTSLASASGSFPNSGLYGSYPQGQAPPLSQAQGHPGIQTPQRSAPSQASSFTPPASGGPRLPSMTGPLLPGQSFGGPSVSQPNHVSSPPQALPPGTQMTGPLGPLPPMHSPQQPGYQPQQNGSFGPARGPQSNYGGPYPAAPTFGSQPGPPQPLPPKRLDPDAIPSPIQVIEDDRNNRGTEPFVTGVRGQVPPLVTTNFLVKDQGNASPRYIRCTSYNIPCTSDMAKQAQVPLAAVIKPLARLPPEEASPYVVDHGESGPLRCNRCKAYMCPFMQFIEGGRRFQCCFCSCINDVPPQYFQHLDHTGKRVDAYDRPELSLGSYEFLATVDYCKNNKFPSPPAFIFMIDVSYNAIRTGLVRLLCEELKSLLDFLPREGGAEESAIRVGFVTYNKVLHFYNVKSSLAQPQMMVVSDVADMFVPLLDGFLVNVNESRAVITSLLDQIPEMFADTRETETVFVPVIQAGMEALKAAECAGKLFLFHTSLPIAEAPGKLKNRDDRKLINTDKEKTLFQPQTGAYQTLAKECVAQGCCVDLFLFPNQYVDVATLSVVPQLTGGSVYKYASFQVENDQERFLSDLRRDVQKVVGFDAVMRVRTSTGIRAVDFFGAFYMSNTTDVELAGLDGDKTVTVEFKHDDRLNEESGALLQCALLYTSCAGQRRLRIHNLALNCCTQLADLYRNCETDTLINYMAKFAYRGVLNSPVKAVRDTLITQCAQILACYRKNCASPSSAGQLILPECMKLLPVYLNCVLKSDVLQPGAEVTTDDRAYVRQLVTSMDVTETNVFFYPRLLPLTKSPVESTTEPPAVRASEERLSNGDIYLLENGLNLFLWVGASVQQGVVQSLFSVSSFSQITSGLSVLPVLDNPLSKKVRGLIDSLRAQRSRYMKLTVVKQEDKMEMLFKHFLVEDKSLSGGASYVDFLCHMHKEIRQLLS
Description: as §1, §2

Row | Structure (SMILES) | rank as covalent binder to PPARγ (competition of 24c-Cy3 labelling) (PPARγ) | LFQ ratio 20 µM Deoxyelephantopin/DMSO with 24c [1] | LFQ ratio 20 µM Deoxyelephantopin/DMSO with 24c [2] | LFQ ratio 20 µM Deoxyelephantopin/DMSO with 24c [3] | LFQ ratio 20 µM Deoxyelephantopin/DMSO with 24c [4]
1 | C=C(C)C(=O)O[C@H]1CC2=C[C@H](C/C=C\[C@H]3OC(=O)C(=C)[C@H]13)OC2=O [19a] | most effective covalent binder | – | – | – | –
2 | C=C(C)C(=O)O[C@H]1CC2=C[C@@H](C/C(C)=C/[C@H]3OC(=O)C(=C)[C@H]13)OC2=O [deoxyelephantopin] | – | 0.00 | 0.19 | 0.00 | 0.18
